Assay results published in patent publication US20250381245A1, “METHODS AND COMPOSITIONS OF TREATING CANCER BY MODULATING PALMITOYLATION OF FLOTILLIN-1” (BOARD OF REGENTS, THE UNIVERSITY OF TEXAS SYSTEM, priority 2022, published 2025).
Residues, ends and D or L forms follow the SMILES beside them. *: point of attachment. Cbz = O=C(OCc1ccccc1)*

Test system: flotillin-1
Test: Flotillin-1 protein level by western blot after chemical inhibition of palmitoylation in triple-negative breast cancer cell lines
Assay type: cell-based
Conditions: MDA-MB-231 and SUM 159 triple-negative breast cancer cell lines
Description: MDA-MB-231 and SUM 159 triple-negative breast cancer cell lines were treated with drug vehicle (DMSO), (B, C) global palmitoylation inhibitor (2-BP), or 2-BP+a proteasomal inhibitor (MG-132).
Protein lysates were lysed in a 1% SDS lysis buffer containing 2 mM EDTA and 20 mM Tris-HCl (PH 6.8) for 5 minutes and scraped into 1.5 mL collection tubes. Lysates were sonicated using horn sonification for 3×20 seconds each and allowed to recover on ice in between each sonification. Lysates were centrifuged for 5 minutes at 10,000 rpm at 4° C. and supernatants subjected to protein quantification by BCA assay. Lysates were then diluted to 50 ug, resolubilized in 4×SDS loading buffer (200 mM Tris-HCL, 6.8 PH, 8% SDS, 40% glycerol, 0.4% bromophenol blue) and boiled at 95° C. for 7 minutes. Boiled samples were resolved on a 10% SDS-PAGE gel and transferred to a nitrocellulose membrane. Transferred membranes were blocked for 1 hour in 5% non-fat dairy milk (NFDM). Blocked membranes were washed with 1× tris buffer saline+0.1% tween-20 (TBST) prior to the addition of the diluted primary antibody overnight at 4° C. The following day, membranes were washed thrice with TBST for 5 minutes each prior to the addition of rabbit (1:3000) (Cell Signaling Technologies, #7074) or mouse IgG (1:5000) secondary horse radish peroxidase (HRP) conjugated antibody diluted in 5% NFDM for 1 hour. […]

| SMILES | flotillin-1 protein levels (global palmitoylation inhibitor vs drug vehicle (DMSO)) | flotillin-1 protein levels upon proteasomal inhibition (2-BP + proteasomal inhibitor (MG-132) vs 2-BP alone) |
| --- | --- | --- |
| CCCCCCCCCCCCCCC(Br)C(=O)O (centres unmarked) [2-BP, 2-bromopalmitate] | significantly reduces flotillin-1 protein levels |  |
| CC(C)C[C@@H](C=O)NC(=O)[C@H](CC(C)C)NC(=O)[C@H](CC(C)C)NC(=O)OCc1ccccc1 [MG-132] (Cbz-Leu-Leu-Leu-aldehyde) |  | restored |
